Results published in PMC5117131 (ACS chemical biology, 2016).
Entries after “also recorded” stand apart in the source; their conditions may differ. Where no end group is shown, it is not given here. TMR = tetramethylrhodamine dye

T1: TMR-E2F2^TD peptide (human)
T1 chain: {TMR}-QDDYLWGLEAGEGISDLFD


Columns and labels:
Rb = conditions: LxCxE-like peptides; cited from earlier work
[1] = biological target: phosphorylated Rb^NP–E2F^TMR (Homo sapiens, UniProt P06400, DEL245-267/DEL582-642); test: FP EC50 measurement of Rb activation; format: biochemical; conditions: 20 nM phosphorylated Rb^NP, 10 nM E2F^TMR, Figure 3b
[2] = biological target: E2F2 transactivation domain peptide (E2FTMR) 409-428 (UniProt Q14209); test: fluorescence polarization, single concentration, 384-well; conditions: reference: unphosphorylated RbNP; sites T356,T373
TMR-E2F2^TD peptide = biological target: T1, TMR-E2F2^TD peptide; test: fluorescence polarisation
[3] = test system: Rb Q736A/K740A docking interface mutant; test: E2F^TD binding to Rb with mutated docking interface; format: biochemical; conditions: Supporting Information Figure 3

| Molecule | affinity for Rb (in words) (Rb) | effect in the Rb activation assay (in words) [1] | FP ratio (TMR-E2F2^TD peptide) | also measured |
| --- | --- | --- | --- | --- |
| MEHQLLCCEVETIRRAY [cyclin D] | weak affinity | do not show activity; also recorded: no effect |  |  |
| Rb (retinoblastoma protein; RbNP construct) 55-787 (from UniProt P06400) Cdk2–CycA phosphorylated RbNP |  |  |  | other: FP ratio [2]: weaker; reference ~165 |
| TDLEASLLSFEKLDRAphosSPDLWPE [LIN52] | weak affinity | do not show activity; also recorded: no effect |  |  |
| phosphorylated Rb^NP (residues 55-787, Δ245-267, Δ582-642, phosphorylated by Cdk2-CycA) (domain or fragment, UniProt P06400 55-787, looked up, quantitative phosphorylation on two sites (the construct contains the two sites T356 and T373)) PDFTALCQKLKIPDHVRERAWLTWEKVSSVDGVLGGYIQKKKELWGICIFIAAVDLDEMSFTFTELQKNIEISVHKFFNLLKEIDTSTKVDNAMSRLLKKYDVLFALFSKLERTCELIYLTQPSSSISTEINSALVLKVSWITFLLAKGEVLQMEDDLVISFQLMLCVLDYFIKLSPPMLLKEPYKTAVIENDTRIIEVLCKEHECNIDEVKNVYFKNFIPFMNSLGLVTSNGLPEVENLSKRYEEIYLKNKDLDARLFLDHDKTLQTDSIDSFETQRTPRKSNLDEEVNVIPPHTPVRTVMNTIQQLMMILNSASDQPSENLISYFNNCTVNPKESILKRVKDIGYIFKEKFAKAVGQGCVEIGSQRYKLGVRLYYRVMESMLKSEEERLSIQNFSKLLNDNIFHMSLLACALEVVMATYSRSTSQNLDSGTDLSFPWILNVLNLKAFDFYKVIESFIKAEGNLTREMIKHLERCEHRIMESLAWLSDSPLFDLIKQSKDREGKSTSLSLFYKKVYRLAYLRLNTLCERLLSEHPELEHIIWTLFQHTLQNEYELMRDRHLDQIMMCSMYGICKVKNIDLKFKIIVTAYKDLPHAVQETFKRVLIKEEEYDSIIVFYNSVFMQRLKTNILQYASTRPPTLSPIPHIPR |  |  | ~60 FP ratio |  |
| unphosphorylated Rb^NP (Rb N-terminal domain and pocket domain, residues 55-787, Δ245-267, Δ582-642) (domain or fragment, UniProt P06400 55-787, looked up) PDFTALCQKLKIPDHVRERAWLTWEKVSSVDGVLGGYIQKKKELWGICIFIAAVDLDEMSFTFTELQKNIEISVHKFFNLLKEIDTSTKVDNAMSRLLKKYDVLFALFSKLERTCELIYLTQPSSSISTEINSALVLKVSWITFLLAKGEVLQMEDDLVISFQLMLCVLDYFIKLSPPMLLKEPYKTAVIENDTRIIEVLCKEHECNIDEVKNVYFKNFIPFMNSLGLVTSNGLPEVENLSKRYEEIYLKNKDLDARLFLDHDKTLQTDSIDSFETQRTPRKSNLDEEVNVIPPHTPVRTVMNTIQQLMMILNSASDQPSENLISYFNNCTVNPKESILKRVKDIGYIFKEKFAKAVGQGCVEIGSQRYKLGVRLYYRVMESMLKSEEERLSIQNFSKLLNDNIFHMSLLACALEVVMATYSRSTSQNLDSGTDLSFPWILNVLNLKAFDFYKVIESFIKAEGNLTREMIKHLERCEHRIMESLAWLSDSPLFDLIKQSKDREGKSTSLSLFYKKVYRLAYLRLNTLCERLLSEHPELEHIIWTLFQHTLQNEYELMRDRHLDQIMMCSMYGICKVKNIDLKFKIIVTAYKDLPHAVQETFKRVLIKEEEYDSIIVFYNSVFMQRLKTNILQYASTRPPTLSPIPHIPR |  |  | ~165 FP ratio |  |
| E7 protein: full length HPV E7 protein (protein) MHGDTPTLHEYMLDLQPETTDLYCYEQLNDSSEEEDEIDGPAGQAEPDRAHYNIVTFCCKCDSTLRLCVQSTHVDIRTLEDLLMGTLGIVCPICSQKP |  |  |  | effect on E2F^TD binding to Rb with mutated docking interface [3]: do not affect E2F^TD binding to Rb |
